The values below come from publication PMC4213378, “Pharmacokinetics and Efficacy of the Spleen Tyrosine Kinase Inhibitor R406 after Ocular Delivery for Retinoblastoma” (Pharmaceutical Research, 2014).

Series [1] is described as follows: Vitreous pharmacokinetics after oral or subconjunctival administration. The class given is in vivo, mouse. The procedure: For oral delivery of R788, the target dose of 25 mg/kg R788 was administered by oral gavage as a 4 mM solution in 0.01 N citrate buffer, pH 6 ([9]). For subconjunctival administration, R788 was prepared at a concentration of 4 mM in 2% PEG-800 and filtered through a 0.22 μm filter prior to use (see Table S1). R788 was also administered subconjunctivally as a suspension at a concentration of 25 mM in 10% 2-hydroxylpropyl-β-cyclodextrin (HPβCD, Sigma-Aldrich). For subconjunctival administration, R406 phenylsulfonate salt was administered at a concentration of 800–900 μM as a cosolvent solution in a formulation of 5% Cremaphor-eL, 0.5% ethanol, 0.2% Tween 80 and 94.3% PBS, filtered through a 0.22 μm filter prior to use (see Table S2). R406 phenylsulfonate salt was also administered subconjunctivally at a dose of 31.4 mM solution in DMSO. R406 free base was administered subconjunctivally at a concentration of 6.5 mM as a 25% castor oil (Sigma-Aldrich) emulsion. This emulsion was prepared by mixing castor oil: ethanol (1:1) solution of R406 (approx. 35 mM), in vacuo evaporation of the ethanol, and centrifugation to remove any excess R406, then emulsifying the R406 oil phase in an aqueous phase comprised of Cremaphor-eL, Tween 80 and PBS (final composition of the emulsion: 25% castor oil, 5% Cremaphor-eL, 0.2% Tween-80, 69.8% PBS) by probe sonication. For intravitreal injection, R788 solution was prepared by filtering a 0.12 mM (120 μM) solution of R788 in saline through a 0.22 μm filter. […] For topical delivery, 25–30 mM suspensions were prepared in 5% HPβCD. R406 or R788 concentration in all formulations was determined by UPLC prior to study (in cases where formulation was filtered before administration, concentration was determined post-filtering) Table I.
For the systemic delivery study R788 was administered as a single bolus dose (25 mg/kg, 10 mL/kg volume) by oral gavage. For the subconjunctival administration study R788 or R406 (10 µL of formulation) was injected into the subconjunctival space of an anesthetized mouse using a Hamilton microliter syringe (Hamilton company, Reno NV). For the intravitreal administration study, R788 (5 μL of […] in saline) was administered to each eye via direct injection. To perform the intravitreal injection, mice were anesthetized, a small incision between the sclera and the cornea was created with a […] needle, and the R788 was injected into the vitreous using a Hamilton microliter syringe. For the topical administration study, R406 (2 μL of 25–30 mM suspension) was applied as a drop to the surface of each eye of an anesthetized mouse.
At serial time points (0.5, 1, 2, 4, and 8 h post-injection, n = 3 for each time point), blood was collected by terminal cardiac puncture after isoflurane anesthesia. Whole-blood samples were centrifuged immediately at 10,000×g for 5 min at 4°C to separate plasma. Once the cardiac puncture and blood collection was completed, the animal was perfused with 10 mL of saline and euthanized by cervical dislocation. Eyes were removed, rinsed in PBS, gently patted dry, then rinsed and dried again. Eyes were dissected and vitreous was collected. Plasma and vitreous samples were put on dry ice immediately after collection and stored at −80°C until analysis. For quantitative analysis methods and assay validation methods and results, see Supplementary Information.
Plasma and vitreous concentration time data were analyzed using non-compartmental analysis in WinNonlin 6.2 (Pharsight, Mountain View, CA), providing PK parameters including Cmax (maximum observed concentration), Tmax (time to reach maximum observed concentration), AUC (area under the concentration time curve) and MRT (mean residence time). AUC and AUMC (area under the concentration time first moment curve) values were estimated with the linear trapezoidal method, with parameters calculated using mean concentration values at each time point. […]

The nature of series [2]: Maximum solubility in PBS or saline. It is filed as physicochemical. The conditions noted are these: PBS; read-out: maximum solubility in PBS.
Series [3] is described as follows: Storage stability of R406 in murine plasma samples. The class given is physicochemical, mouse. The method, then: Stability: The extracted solution stability of R406 from murine plasma or vitreous was assessed at low (41.2nM), medium (370.4 nM), and high (3333.3 nM) concentrations in triplicate at room temperature. Blank murine plasma was spiked with the indicated concentrations of R406 and extracted solutions were stored at room temperature for day 0, and day 2. The short-term stability of R406 in murine plasma or vitreous at -20 °C was assessed at three concentrations in triplicate. Samples were thawed at day 1 and 2. At day 2, protein precipitation was performed and samples treated with internal standard/acetonitrile as described previously: for murine plasma samples, 50 µL of sample was quenched by addition of 100 µL of 5 mg/L OSI-906 (internal standard) in 100% acetonitrile, followed by plate sealing, shaking and centrifuging, transfer of 100 µL of supernatant injection of 10 µL of supernatant onto the LC–MS/MS system; for murine vitreous samples, 5 µL of sample quenched by addition of 45 µL of 5 mg/L OSI-906 (internal standard) in 100% acetonitrile, followed by plate sealing, shaking and centrifuging, transfer of 40 µL of supernatant injection of 10 µL of supernatant onto the LC–MS/MS system. Long term stability of R406 in murine plasma or vitreous at −80 °C was assessed. Unextracted spiked murine plasma or vitreous at low, medium, and high levels was frozen at −80 °C for 0, 7, and 14 days. Samples were thawed immediately extracted with acetonitrile/OSI-906, and quantitated. All samples were analyzed in triplicates.

Where [4] appears, read: local (subconjunctival), DMSO 31.4 mM, 314 nmol per eye, mice.
The mark [5] stands for this setting: local (subconjunctival), co-solvent solution 0.88 mM, 8.8 nmol per eye, mice.

Structures are written as SMILES.

What is called Cmax is the highest concentration seen after dosing. In general, solubility refers to how much of the substance goes into solution per volume. Consider `COc1cc(Nc2ncc(F)c(Nc3ccc4c(n3)NC(=O)C(C)(C)O4)n2)cc(OC)c1OC.O=S(=O)(O)c1ccccc1` [R406 phenylsulfonate salt], for which the “ratio of vitreous AUC to plasma AUC relative to R788 in suspension (250 nmol per eye)” value in series [1] (R406 salt administered locally, 314 nmol total per eye) is 22 fold. Moreover, in series [1] (setting [4]), the Cmax was 892 ± 350 nM, the “Ratio Vitreous AUClast/Plasma AUClast” value is 6.6, the “Vitreous AUClast” value is 1,960 nM∙h and the “Vitreous Dose normalized AUC” value amounted to 3.1 nM∙h/nmol. Also, in series [1] (setting [4]), the “Vitreous MRT0-4h” value is 121 min, the “Vitreous Tlast” value was 4 h and the “Vitreous Tmax” value turned out to be 30 min. The “Vitreous MRT0-4h” value in series [1] (local (subconjunctival), DMSO 31.4 mM, 314 nmol per eye, mice, listed as R406 salt) is at least 120 min. Besides, in series [1] (setting [5]), the Cmax is 41.3 ± 18 nM, the “Vitreous AUClast” value stood at 33.7 nM·h, the “Vitreous Dose normalized AUC” value stood at 1.9 nM∙h/nmol and the “Vitreous MRT0-4h” value is 46.9 min. In series [1] (setting [5]), the “Vitreous Tlast” value turned out to be 2 h and the “Vitreous Tmax” value is 30 min. For the same molecule, in series [1] (local (subconjunctival), co-solvent solution 0.88 mM, 8.8 nmol per eye, mice, listed as R406 salt), the “Vitreous MRT0-4h” value is “less than 1 h”. Further, the solubility in series [2] was 0.4 µM.
Take `COc1cc(Nc2ncc(F)c(Nc3ccc4c(n3)NC(=O)C(C)(C)O4)n2)cc(OC)c1OC` [R406]: in series [3] (extracted from murine plasma, room temperature), the “time extracted samples were stable” value is recorded as “at least 48 hours”. The Accuracy% in series [3] (extracted plasma samples in autosampler for 2 days, injected at Day 3, High Control 3333.3 nM) is 94.4%; in series [3] (extracted plasma samples in autosampler for 2 days, injected at Day 3, Low Control 41.2 nM), 97.4%; in series [3] (extracted plasma samples in autosampler for 2 days, injected at Day 3, Middle Control 370.4 nM) it was 97.6%; in series [3] (murine plasma at -20°C, thawed on Day 2, injected at Day 3, High Control 3333.3 nM), 95.6%; in series [3] (murine plasma at -20°C, thawed on Day 2, injected at Day 3, Low Control 41.2 nM), 109.2%; in series [3] (murine plasma at -20°C, thawed on Day 2, injected at Day 3, Middle Control 370.4 nM) it was 98.4%. The Accuracy% in series [3] (murine plasma at -20°C, thawed on Day 3, injected at Day 3, Middle Control 370.4 nM) came out at 101.5%; in series [3] (murine plasma at -80°C, injected at Day 8, High Control 3333.3 nM) it was 84.3%; in series [3] (murine plasma at -80°C, injected at Day 8, Low Control 41.2 nM), 87.8%; in series [3] (murine plasma at -80°C, injected at Day 8, Middle Control 370.4 nM), 93.1%; in series [3] (murine plasma at -80°C, injected at Day 15, High Control 3333.3 nM) it was 89.5%; in series [3] (murine plasma at -80°C, injected at Day 15, Low Control 41.2 nM), 84.8%. The same molecule had an Accuracy% in series [3] (murine plasma at -80°C, injected at Day 15, Middle Control 370.4 nM) of 84.7%. The “time spiked samples were stable” value in series [3] (murine plasma stored at -20°C) is given as “at least 72 hours”; in series [3] (murine plasma stored at -80°C) it was at least 14 days. Further, the “maximum intraocular concentration that could be reached from subconjunctival route” value in series [1] (DMSO control, 31.4 mM R406 in DMSO, subconjunctival, mice) is “approximately 1 μM”. In addition, in series [1] (subconjunctival, 10 μl of R406 solution formulation per eye, mice), the “maximal concentration achieved in the vitreous” value turned out to be 0.05 µM.
